In brackets after ≈: the same amount, converted by molar mass. Where a name gives a salt, the structure may show the parent alone.
Key:
[1] = test system: platelet-rich human plasma; platelet aggregation induced by collagen; assay: Platelet aggregation (platelet-rich human plasma) induced in vitro by collagen; type: cell-based; settings: platelet-rich human plasma, 300,000 platelets/cm^2, 10.0 μg/ml of collagen; read-out: IC50, inductor: collagen
Description: (§1) Study of the Effects on the Platelet Aggregation (Platelet-Rich Human Plasma) Induced in Vitro By: ADP, Collagen or Arachidonic Acid Blood samples from volunteer donors are treated and adjusted to a platelet concentration of 300,000/cm^2 and then incubated with different concentrations of the test products. Aggregation is induced by 2.0 μg/ml of ADP or by 10.0 μg/ml of collagen. The measurements are made using a Bryston-type aggregometer--or CHRONOLOG. The changes in optical density are noted and the values of the concentrations which cause a 50% inhibition are calculated.

[2] = test system: platelet-rich human plasma; platelet aggregation induced by ADP; assay: Platelet aggregation (platelet-rich human plasma) induced in vitro by ADP; type: cell-based; settings: platelet-rich human plasma, 300,000 platelets/cm^2, 2.0 μg/ml of ADP; read-out: IC50, inductor: ADP
Description: as §1

[3] = test system: isolated guinea-pig intestine; assay: Antagonistic effects on isolated guinea-pig intestine (MAGNUS); settings: 0.1 μg/ml
platelet aggregation = assay: In vitro inhibition of platelet aggregation (BORN's method), induced by collagen or ADP; type: cell-based, animal and human; settings: 100 μg/ml, aspirin as reference
Description: In vitro inhibition of platelet aggregation The inhibition of platelet aggregation is measured in vitro by BORN's method (Nature 4832, 927 (1962)), the aggregation being induced by collagen or ADP. […] The aggregation can also be induced in vitro by serotonin, arachidonic acid and norepinephrine. Furthermore, this inhibitory effect was observed on platelet-rich plasma (PRP) of animal origin and human origin.

| Structure (SMILES) | IC50 [1] | IC50 [2] | inhibitory effect on isolated guinea-pig intestine [3] | inhibition of platelet aggregation compared with aspirin (platelet aggregation) |
| --- | --- | --- | --- | --- |
| C=CCON=C1CC(=NOCC=C)c2ccccc2-c2ccccc21 [Example 1, 5,7 -Bis(Allyloxyimino)-6,7-Dihydro-(5H)-Dibenzo[a,c]Cycloheptene] | 800 µg/mL (≈ 2410 µM) | 650 µg/mL (≈ 1960 µM) | – | – |
| CON=C1CC(=NOC)c2ccccc2-c2ccccc21 [Example 2, 5,7-Bis(Methoxyimino)-6,7-Dihydro-(5H)-Dibenzo[a,c]Cycloheptene] | 800 µg/mL (≈ 2850 µM) | – | – | – |
| CCON=C1CC(=NOCC)c2ccccc2-c2ccccc21 [Example 3, 5,7-Bis(Ethoxyimino)-6,7-Dihydro-(5H)-Dibenzo[a,c]Cycloheptene] | 500 µg/mL (≈ 1620 µM) | 620 µg/mL (≈ 2010 µM) | – | – |
| CCCON=C1CC(=NOCCC)c2ccccc2-c2ccccc21 [Example 4, 5,7-Bis(n-Propoxyimino)-6,7-Dihydro-(5H)-Dibenzo[a,c]Cycloheptene] | 420 µg/mL (≈ 1250 µM) | 600 µg/mL (≈ 1780 µM) | – | – |
| N#CCCCON=C1CC(=NOCCCC#N)c2ccccc2-c2ccccc21 [Example 5, 5,7-Bis(3-Cyanopropoxyimino)-6,7-Dihydro-(5H)-Dibenzo[a,c]Cycloheptene] | 650 µg/mL (≈ 1680 µM) | 420 µg/mL (≈ 1090 µM) | – | – |
| CC(C)(C)ON=C1CC(=NOC(C)(C)C)c2ccccc2-c2ccccc21 [Example 6, 5,7-Bis(Tert.-Butoxyimino)-6,7-Dihydro-(5H)-Dibenzo[a,c]Cycloheptene] | 600 µg/mL (≈ 1650 µM) | 460 µg/mL (≈ 1260 µM) | – | – |
| c1ccc2c(c1)C(=NOCC1CCCCC1)CC(=NOCC1CCCCC1)c1ccccc1-2 [Example 7, 5,7-Bis(Cyclohexylmethoxyimino)-6,7-Dihydro-(5H)-Dibenzo[a,c]Cycloheptene] | 600 µg/mL (≈ 1350 µM) | 600 µg/mL (≈ 1350 µM) | – | – |
| c1ccc(CON=C2CC(=NOCc3ccccc3)c3ccccc3-c3ccccc32)cc1 [Example 8, 5,7-Bis(Benzyloxyimino)-6,7-Dihydro-(5H)-Dibenzo[a,c]Cycloheptene] | 800 µg/mL (≈ 1850 µM) | 650 µg/mL (≈ 1500 µM) | – | – |
| c1ccc(CCON=C2CC(=NOCCc3ccccc3)c3ccccc3-c3ccccc32)cc1 [Example 9, 5,7-Bis(2-Phenylethoxyimino)-6,7-Dihydro-(5H)-Dibenzo[a,c]Cycloheptene] | 600 µg/mL (≈ 1300 µM) | 600 µg/mL (≈ 1300 µM) | – | – |
| CCOC(=O)CON=C1CC(=NOCC(=O)OCC)c2ccccc2-c2ccccc21 [Example 10, 5,7-Bis(Ethoxycarbonylmethoxyimino)-6,7-Dihydro-(5H)-Dibenzo[a,c]Cycloheptene] | 650 µg/mL (≈ 1530 µM) | 400 µg/mL (≈ 942 µM) | – | – |
| CC(C)(C)OC(=O)CON=C1CC(=NOCC(=O)OC(C)(C)C)c2ccccc2-c2ccccc21 [Example 11, 5,7-Bis(Tert.-Butoxycarbonylmethoxyimino)-6,7-Dihydro-(5H)-Dibenzo[a,c]Cycloheptene] | 320 µg/mL (≈ 666 µM) | 200 µg/mL (≈ 416 µM) | – | – |
| CCOC(=O)CCCON=C1CC(=NOCCCC(=O)OCC)c2ccccc2-c2ccccc21 [Example 12, 5,7-Bis(Ethoxycarbonylpropoxyimino)-6,7-Dihydro-(5H)-Dibenzo[a,c]Cycloheptene] | 670 µg/mL (≈ 1390 µM) | 450 µg/mL (≈ 936 µM) | – | – |
| O=C(O)CON=C1CC(=NOCC(=O)O)c2ccccc2-c2ccccc21 [Example 13, 5,7-Bis(Hydroxycarbonylmethoxyimino)-6,7-Dihydro-(5H)-Dibenzo[a,c]Cycloheptene] | 450 µg/mL (≈ 1220 µM) | 400 µg/mL (≈ 1090 µM) | – | – |
| Cl.Cl.c1cncc(CON=C2CC(=NOCc3cccnc3)c3ccccc3-c3ccccc32)c1 [Example 14, 5,7-Bis(pyridin-3-ylmethoxyimino)-6,7-dihydro-(5H)-dibenzo[a,c]cycloheptene dihydrochloride] | 600 µg/mL | 460 µg/mL | still substantial | – |
| Cl.Cl.c1ccc2c(c1)C(=NOCCN1CCCCC1)CC(=NOCCN1CCCCC1)c1ccccc1-2 [Example 20, 5,7-Bis(Piperidin-1-ylethoxyimino)-6,7-Dihydro-(5H)-Dibenzo[a,c]Cycloheptene Dihydrochloride] | 120 µg/mL | 80 µg/mL | – | comparable or even superior to aspirin |
| CCN(CC)CCON=C1c2ccccc2C(=NOCCN(CC)CC)C1c1ccccc1 (stereo not shown) [Example 21, 1,3-Bis(2-Diethylaminoethoxyimino)-2-Phenyl-(1H)-Indene-(2H) Dihydrochloride] | 40 µg/mL | 24 µg/mL | – | comparable or even superior to aspirin |
| CCN(CC)CCON=C1CC(=NOCCN(CC)CC)c2ccccc21 [Example 22, 1,3-Bis(2-Diethylaminoethoxyimino)-(1H)-Indene-(1H) Dihydrochloride] | 145 µg/mL | 160 µg/mL | still substantial | – |
| c1ccc2c(c1)C(=NOCCN1CCOCC1)CC2=NOCCN1CCOCC1 [Example 23, 1,3-Bis(2-Morpholinoethoxyimino)-(1H)-Indene-(2H) Dihydrochloride] | 350 µg/mL | 420 µg/mL | – | – |
| c1ccc(C2C(=NOCCN3CCOCC3)c3ccccc3C2=NOCCN2CCOCC2)cc1 (stereo not shown) [Example 24, 1,3-Bis(2-Morpholinoethoxyimino)-2-Phenyl-(1H)-Indene-(2H) Dihydrochloride] | 340 µg/mL | 210 µg/mL | – | comparable or even superior to aspirin |
| c1ccc(C2C(=NOCCN3CCCCC3)c3ccccc3C2=NOCCN2CCCCC2)cc1 (stereo not shown) [Example 25, 1,3-Bis(2-Piperidin-1-ylethoxyimino)-2-Phenyl-(1H)-Indene-(2H) Dihydrochloride] | 38 µg/mL | 20 µg/mL | – | comparable or even superior to aspirin |
| COc1ccc(C2C(=NOCCN3CCCCC3)c3ccccc3C2=NOCCN2CCCCC2)cc1 (stereo not shown) [Example 26, 1,3-Bis(2-Piperidin-1-ylethoxyimino-2-(4-Methoxyphenyl-(1H)-Indene-(2H) Dihydrochloride] | 24 µg/mL | 18 µg/mL | – | comparable or even superior to aspirin |

Second part, led by results:

| IC50 [1] | IC50 [2] | Structure (SMILES) | inhibitory effect on isolated guinea-pig intestine [3] | inhibition of platelet aggregation compared with aspirin (platelet aggregation) |
| --- | --- | --- | --- | --- |
| 40 µg/mL | 28 µg/mL | CCN(CC)CCON=C1c2ccccc2C(=NOCCN(CC)CC)C1c1ccc(Cl)cc1 (stereo not shown) [Example 27, 1,3-Bis(2-Diethylaminoethoxyimino)-2-(4-Chlorophenyl)-(1H)-Indene-(2H) Dihydrochloride] | – | comparable or even superior to aspirin |
| 62 µg/mL | 40 µg/mL | CCN(CC)CCON=C1c2ccccc2C(=NOCCN(CC)CC)C1c1ccc(C)cc1 (stereo not shown) [Example 28, 1,3-Bis(2-Diethylaminoethoxyimino)-2-(4-Methylphenyl)-(1H)-Indene-(2H) Dihydrochloride] | – | comparable or even superior to aspirin |
| 110 µg/mL (≈ 222 µM) | 100 µg/mL (≈ 202 µM) | CCN(CC)CCON=C1c2ccccc2C(=NOCCN(CC)CC)C1c1ccc2c(c1)OCO2 (stereo not shown) [Example 29, 1,3-Bis(2-Diethylaminoethoxyimino)-2-(3,4-Methylenedioxyphenyl)-(1H)-Indene-(2H) Dihydochloride] | – | comparable or even superior to aspirin |
| 150 µg/mL (≈ 353 µM) | 210 µg/mL (≈ 495 µM) | CCOC(=O)CON=C1c2ccccc2C(=NOCC(=O)OCC)C1c1ccccc1 (stereo not shown) [Example 30, 1,3-Bis(Ethoxycarbonylmethoxyimino)-2-Phenyl-(1H)-Indene-(2H)] | – | comparable or even superior to aspirin |
| 250 µg/mL (≈ 679 µM) | – | O=C(O)CON=C1c2ccccc2C(=NOCC(=O)O)C1c1ccccc1 (stereo not shown) [Example 31, 1,3-Bis(Hydroxycarbonylmethoxyimino)-2-Phenyl-(1H)-Indene-(2H)] | – | – |
| 20 µg/mL | 18 µg/mL | CCN(CC)CCON=C1c2ccccc2-c2ccccc2C(=NOCCN(CC)CC)C1c1ccccc1.Cl.Cl (stereo not shown) [Example 32, 5,7-Bis(2-Diethylaminoethoxyimino)-6-Phenyl-6,7-Dihydro-(5H)-Dibenzo[a,c]Cycloheptene Dihydrochloride] | – | comparable or even superior to aspirin |
| 12 µg/mL | 22 µg/mL | CCN(CC)CCON=C1c2ccccc2-c2ccccc2C(=NOCCN(CC)CC)C1c1ccc(F)cc1.Cl.Cl (stereo not shown) [Example 33, 5,7-Bis(2-Diethylaminoethoxyimino)-6-(4-Fluorophenyl)-6,7-Dihydro-(5H)-Dibenzo[a,c]Cycloheptene Dihydrochloride] | – | comparable or even superior to aspirin |
| 40 µg/mL | 24 µg/mL | CCN(CC)CCON=C1c2ccccc2-c2ccccc2C(=NOCCN(CC)CC)C1c1ccc(Cl)cc1.Cl.Cl (stereo not shown) [Example 34, 5,7-Bis(2-Diethylaminoethoxyimino)-6-(4-Chlorophenyl)-6,7-Dihydro-(5H)-Dibenzo[a,c]Cycloheptene Dihydrochloride] | – | comparable or even superior to aspirin |
| 25 µg/mL | 16 µg/mL | CCN(CC)CCON=C1c2ccccc2-c2ccccc2C(=NOCCN(CC)CC)C1c1ccc(OC)cc1.Cl.Cl (stereo not shown) [Example 35, 5,7-Bis(Diethylaminoethoxyimino)-6-(4-Methoxyphenyl)-6,7-Dihydro-(5H)-Dibenzo[a,c]Cycloheptene Dihydrochloride] | – | comparable or even superior to aspirin |

From patent publication US4804684A, “Symmetrical O-substituted dioximes of benzo-fused β-diketocyclo-alkylenes, the processes for their preparation and their application as drugs” (Panmedica S.A., priority 1986, dated 1989)
